Data reported in publication PMC9599461, “Stereoselectivity in the Membrane Transport of Phenylethylamine Derivatives by Human Monoamine Transporters and Organic Cation Transporters 1, 2, and 3” (Biomolecules, 2022).
Where two headings read alike, the source gives them in different places.

Tests used:
OCT1 = molecular target: T1, OCT1 (Homo sapiens, UniProt O15245); test: Stereoselective uptake into OCT1-overexpressing HEK293 cells; conditions: for Clint ± SEM: quotient of vmax over Km;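 on all read-outs here: enantiomers quantified inside cells by chiral HPLC-MS/MS, uptake normalized to total protein from bicinchoninic acid assay, substrates applied in HBSS+ buffer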
T1 sequence (O15245 1-554): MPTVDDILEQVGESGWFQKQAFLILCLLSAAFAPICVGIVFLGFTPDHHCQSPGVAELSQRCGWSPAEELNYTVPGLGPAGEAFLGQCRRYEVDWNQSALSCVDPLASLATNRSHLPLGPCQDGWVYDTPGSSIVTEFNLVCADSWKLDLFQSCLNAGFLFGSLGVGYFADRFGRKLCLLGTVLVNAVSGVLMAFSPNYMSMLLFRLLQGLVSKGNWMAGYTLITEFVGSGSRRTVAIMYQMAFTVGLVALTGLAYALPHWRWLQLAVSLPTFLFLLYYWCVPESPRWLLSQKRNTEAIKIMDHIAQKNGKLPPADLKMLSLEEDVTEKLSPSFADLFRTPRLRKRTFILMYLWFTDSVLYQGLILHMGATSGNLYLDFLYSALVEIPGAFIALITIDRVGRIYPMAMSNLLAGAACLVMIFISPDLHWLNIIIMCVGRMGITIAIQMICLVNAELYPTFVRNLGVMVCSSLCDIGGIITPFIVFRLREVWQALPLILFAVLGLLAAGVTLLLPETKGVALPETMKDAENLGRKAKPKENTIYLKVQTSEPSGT

SERT [1] = molecular target: T2, SERT (Homo sapiens, UniProt P31645); test: Stereoselective uptake into SERT-overexpressing HEK293 cells; conditions: for Clint ± SEM: SERT, quotient of vmax over Km;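 on all read-outs here: uptake into HEK293 cells stably expressing human SERT over 2 min, enantiomers measured in cell lysate by chiral HPLC-MS/MS, normalized to total protein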
T2 sequence (P31645 whole entry): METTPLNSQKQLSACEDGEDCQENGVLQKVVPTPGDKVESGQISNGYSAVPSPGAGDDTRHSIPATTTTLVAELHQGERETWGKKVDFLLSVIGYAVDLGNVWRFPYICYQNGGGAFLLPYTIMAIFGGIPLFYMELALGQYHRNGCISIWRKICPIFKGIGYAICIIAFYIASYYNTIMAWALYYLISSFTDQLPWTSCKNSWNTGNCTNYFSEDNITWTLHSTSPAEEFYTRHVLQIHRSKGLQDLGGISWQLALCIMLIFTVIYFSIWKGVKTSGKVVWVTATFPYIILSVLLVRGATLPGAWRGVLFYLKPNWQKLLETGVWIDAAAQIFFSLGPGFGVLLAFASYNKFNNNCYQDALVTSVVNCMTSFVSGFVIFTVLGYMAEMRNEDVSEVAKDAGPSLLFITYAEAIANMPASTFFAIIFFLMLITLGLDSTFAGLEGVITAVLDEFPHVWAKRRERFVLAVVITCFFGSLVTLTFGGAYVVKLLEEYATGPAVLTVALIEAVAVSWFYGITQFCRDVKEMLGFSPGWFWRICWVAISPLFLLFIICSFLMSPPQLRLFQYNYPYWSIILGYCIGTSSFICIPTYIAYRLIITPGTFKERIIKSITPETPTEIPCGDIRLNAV

SERT [2] = molecular target: T2, SERT
OCT2 [3] = molecular target: T3, OCT2 (Homo sapiens, UniProt O15244, S270A); test: Stereoselective uptake into OCT2 (wild-type)-overexpressing HEK293 cells; conditions: OCT2, ratio between enantiomers; for Stereoselectivity Km: given as for (R) or for 1 (first-eluting)
T3 sequence (O15244 1-555 S270A): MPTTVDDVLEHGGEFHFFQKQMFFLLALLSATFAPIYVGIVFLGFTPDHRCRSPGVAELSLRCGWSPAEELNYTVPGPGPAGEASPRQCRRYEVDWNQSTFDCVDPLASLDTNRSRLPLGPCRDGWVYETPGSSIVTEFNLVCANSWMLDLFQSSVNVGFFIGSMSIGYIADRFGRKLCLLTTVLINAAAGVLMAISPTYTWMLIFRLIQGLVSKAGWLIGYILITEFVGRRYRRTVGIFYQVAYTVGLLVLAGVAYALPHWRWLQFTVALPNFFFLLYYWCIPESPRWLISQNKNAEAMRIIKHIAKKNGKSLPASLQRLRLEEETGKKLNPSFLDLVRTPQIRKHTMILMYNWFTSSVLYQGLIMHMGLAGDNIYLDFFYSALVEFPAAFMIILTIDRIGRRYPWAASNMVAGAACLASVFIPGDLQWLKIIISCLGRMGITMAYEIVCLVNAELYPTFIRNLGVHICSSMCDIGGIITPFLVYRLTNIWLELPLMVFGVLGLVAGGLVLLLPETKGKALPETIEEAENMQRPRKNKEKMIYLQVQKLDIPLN

OCT2 [4] = molecular target: T4, OCT2 (Homo sapiens, UniProt O15244); test: as above; conditions: for Clint ± SEM: OCT2, quotient of vmax over Km
T4 sequence (O15244 1-555 S270A): T3 sequence (O15244 1-555 S270A)

OCT3 = molecular target: T5, OCT3 (Homo sapiens, UniProt O75751); test: Stereoselective uptake into OCT3-overexpressing HEK293 cells; conditions: for Clint ± SEM / Stereoselectivity Vmax / Stereoselectivity Km: OCT3; for Clint ± SEM: quotient of vmax over Km; for Stereoselectivity Vmax / Stereoselectivity Km: ratio between enantiomers; for Stereoselectivity Vmax: given as for (R) or for 1;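 on all read-outs here: intracellular accumulation in HEK293 cells measured by chiral HPLC-MS/MS after a 2 min substrate exposure at 37 °C, uptake normalized to total protein (bicinchoninic acid assay)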
T5 sequence (O75751 1-556): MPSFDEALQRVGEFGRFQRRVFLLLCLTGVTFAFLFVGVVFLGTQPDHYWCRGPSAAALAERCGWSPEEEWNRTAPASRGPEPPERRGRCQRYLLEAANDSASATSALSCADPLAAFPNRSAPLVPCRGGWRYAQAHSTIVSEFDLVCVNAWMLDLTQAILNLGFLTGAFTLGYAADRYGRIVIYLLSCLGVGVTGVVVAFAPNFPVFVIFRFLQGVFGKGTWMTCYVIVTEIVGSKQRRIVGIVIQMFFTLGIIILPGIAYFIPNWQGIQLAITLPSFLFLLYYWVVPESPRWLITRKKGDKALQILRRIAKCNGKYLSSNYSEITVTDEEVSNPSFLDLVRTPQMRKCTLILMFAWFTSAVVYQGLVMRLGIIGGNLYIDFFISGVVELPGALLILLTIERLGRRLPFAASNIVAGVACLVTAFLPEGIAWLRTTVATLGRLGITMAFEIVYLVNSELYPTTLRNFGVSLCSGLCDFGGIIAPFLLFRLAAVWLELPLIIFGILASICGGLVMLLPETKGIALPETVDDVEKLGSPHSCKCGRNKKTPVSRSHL

DAT = DAT (Homo sapiens, UniProt Q01959); test: Stereoselective uptake into DAT-overexpressing HEK293 cells; conditions: DAT;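 further: intracellular accumulation measured by chiral HPLC-MS/MS in stably transfected HEK293 cells, normalized to total protein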
DAT, sequence (Q01959 whole entry): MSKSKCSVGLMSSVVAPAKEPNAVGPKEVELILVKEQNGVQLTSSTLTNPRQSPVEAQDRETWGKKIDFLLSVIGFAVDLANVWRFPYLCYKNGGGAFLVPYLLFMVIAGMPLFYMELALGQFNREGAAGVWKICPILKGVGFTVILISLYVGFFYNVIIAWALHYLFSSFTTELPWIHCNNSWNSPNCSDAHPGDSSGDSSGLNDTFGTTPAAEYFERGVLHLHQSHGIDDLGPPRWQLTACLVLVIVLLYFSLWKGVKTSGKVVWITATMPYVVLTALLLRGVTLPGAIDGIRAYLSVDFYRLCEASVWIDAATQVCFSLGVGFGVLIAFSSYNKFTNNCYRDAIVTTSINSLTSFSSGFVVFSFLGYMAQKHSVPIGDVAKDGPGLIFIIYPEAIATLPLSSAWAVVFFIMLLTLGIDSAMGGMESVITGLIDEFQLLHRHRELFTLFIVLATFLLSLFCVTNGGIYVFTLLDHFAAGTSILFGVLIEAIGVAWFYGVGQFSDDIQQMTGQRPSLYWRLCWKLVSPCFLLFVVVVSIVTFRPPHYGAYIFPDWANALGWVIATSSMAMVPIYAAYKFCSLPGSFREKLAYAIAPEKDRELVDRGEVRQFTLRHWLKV
Protocol: All transport experiments were carried out in HEK293 cells stably overexpressing human MATs or OCTs. […] All cells were regularly cultivated in DMEM supplemented with 10% (v/v) FCS, penicillin (100 U/mL) and streptomycin (100 μg/mL)and kept in culture for no longer than 30 passages.
For the uptake experiments, 300,000 cells were plated in poly-D-lysine precoated 24-well plates 48 h ahead of the transport experiment. On the day of experiment, cells were initially washed once with 37 °C pre-warmed HBSS+ (Hanks buffered salt solution supplemented with 10 mM HEPES) and subsequently incubated with the substrates dissolved in pre-warmed HBSS+ for exactly two minutes. Incubation was stopped by adding ice-cold HBSS+ followed by two washing steps. After this, cells were lysed with 80% acetonitrile containing 10 ng/mL milnacipran as internal standard for high-performance liquid chromatography coupled to tandem mass spectrometry (HPLC-MS/MS) analysis. For every experiment, two additional wells per cell line were lysed using RIPA buffer for protein quantification. Total protein was quantified using the bicinchoninic acid assay [42]. This was later used for normalization of the uptake data.
Intracellularly accumulated test substances were quantified by HPLC-MS/MS analysis using a Shimadzu Nexera HPLC system with a SIL-30AC autosampler, a CTO-20AC column oven, a LC-30AD pump, and a CBM-20A controller (Shimadzu, Kyoto, Japan). Stereoselective chromatography was carried out on a [sequence] CBH HPLC column (100 × 3 mm inner dimension with 5 μM particle size; Sigma-Aldrich, Darmstadt, Germany) with a corresponding 10 × 3 mm guard column. Reversed phased chromatography was carried out using an ammonium acetate (NH4Ac) buffered aqueous mobile phase with isopropyl alcohol (IPA) as organic solvent. […] The order of elution of the enantiomers was obtained from available reference literature [43] or by applying enantiopure reference compounds to the chiral HPLC. […] Given the structural similarity of the investigated substances and the fact that separation was performed on the same column with almost identical mobile phases, we assume that this order of elution for our compound set is always the (R)- before the (S)-enantiomer.
Detection was performed with an API 4000 tandem mass spectrometer (AB SCIEX, Darmstadt, Germany) operating in multiple-reaction-monitoring mode. Quantification was performed using the Analyst 1.6.2 software (AB SCIEX, Darmstadt, Germany) and quantified by comparison to standard curves with known concentrations.
All uptake data were normalized to protein content to account for variation in the number of seeded sells. Transporter-mediated net uptake was calculated by subtracting uptake into empty vector-transfected control cells from uptake into transporter-transfected cells. Kinetic parameters were then determined after non-linear regression following the Michaelis–Menten equation (v = vmax × [S]/(Km + [S])) using GraphPad Prism (Version 5.01 for Windows, GraphPad Software, La Jolla, CA, USA). Vmax refers to the maximum transport velocity and Km is defined as the substance concentration required to reach half of vmax. The intrinsic clearance Clint was calculated as the quotient of vmax over Km.

OCT2 A270S variant = test: Stereoselective uptake into OCT2 A270S variant-overexpressing HEK293 cells; conditions: OCT2 wild-type versus A270S, 100 μM racemic substance, two minutes, given as for WT;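 further: uptake into HEK293 cells stably overexpressing human OCT2 variants, intracellular enantiomers quantified by chiral HPLC-MS/MS and normalized to total protein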
NET = NET (Homo sapiens, UniProt P23975); test: Stereoselective uptake into NET-overexpressing HEK293 cells; conditions: for Vmax ± SEM: net uptake; for Clint ± SEM: quotient of vmax over Km; for Stereoselectivity ClInt / Stereoselectivity Vmax: given as for (S) or for 2;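 on all read-outs here: intracellular enantiomers quantified in cell lysates by chiral HPLC-MS/MS after a 2 min substrate incubation, with uptake normalized to total cellular protein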
NET, sequence (P23975 whole entry): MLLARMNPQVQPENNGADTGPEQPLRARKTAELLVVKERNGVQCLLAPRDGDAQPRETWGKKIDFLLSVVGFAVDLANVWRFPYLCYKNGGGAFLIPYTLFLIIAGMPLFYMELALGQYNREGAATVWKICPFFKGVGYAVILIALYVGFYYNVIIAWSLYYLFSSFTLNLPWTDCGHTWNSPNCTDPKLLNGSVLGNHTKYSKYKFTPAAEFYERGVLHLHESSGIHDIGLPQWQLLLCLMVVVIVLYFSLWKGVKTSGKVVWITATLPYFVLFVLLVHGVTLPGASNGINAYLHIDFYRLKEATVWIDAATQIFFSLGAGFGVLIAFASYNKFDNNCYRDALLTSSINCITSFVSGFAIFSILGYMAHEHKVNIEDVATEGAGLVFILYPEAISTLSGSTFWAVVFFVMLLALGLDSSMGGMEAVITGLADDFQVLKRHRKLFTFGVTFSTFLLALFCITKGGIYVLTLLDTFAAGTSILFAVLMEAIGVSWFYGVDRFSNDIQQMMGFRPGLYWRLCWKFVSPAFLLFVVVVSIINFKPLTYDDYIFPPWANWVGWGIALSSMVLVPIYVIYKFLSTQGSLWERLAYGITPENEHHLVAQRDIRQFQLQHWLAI

[5] = ratio between enantiomers, given as for (S) or for 2
[6] = HEK293 cells overexpressing human NET, racemic substrate, two minutes

## NCC(O)c1cccc(O)c1 (single isomer, unassigned) [Norphenylephrine-2, Norphenylephrine]
OCT1; OCT1
  Clint ± SEM: 3.84 mL × g Protein^−1 × min^−1
OCT1; OCT1, ratio between enantiomers, given as for (R) or for 1
  Stereoselectivity Vmax: 1.08 fold
OCT1; OCT1, ratio between enantiomers, given as for (R) or for 1 (first-eluting)
  Stereoselectivity Km: 1.03 fold
OCT1; human, 2 min
  Stereoselectivity ClInt: 1.05 fold
SERT [1]
  Stereoselectivity Km: 1.20 fold
  Stereoselectivity Vmax: 1.27 fold
  Clint ± SEM: 1.83 mL × g Protein^−1 × min^−1
SERT [2]; human
  Stereoselectivity ClInt: 1.53 fold
OCT2 [3]; given as for (R) or for 1
  Stereoselectivity ClInt: 1.40 fold
  Stereoselectivity Vmax: 2.19 fold
OCT2 [3]
  Stereoselectivity Km: 1.57 fold
OCT2 [4]
  Clint ± SEM: 26.07 mL × g Protein^−1 × min^−1
OCT3
  Clint ± SEM: 3.32 mL × g Protein^−1 × min^−1
  Stereoselectivity Vmax: 3.88 fold
OCT3; given as for (R) or for 1 (first-eluting)
  Stereoselectivity Km: 1.17 fold
OCT3; human, 2 min
  Stereoselectivity ClInt: 3.32 fold
DAT; quotient of vmax over Km
  Clint ± SEM: 167 mL × g Protein^−1 × min^−1
DAT; [5]
  Stereoselectivity ClInt: 1.29 fold
  Stereoselectivity Vmax: 1.55 fold
DAT; ratio between enantiomers, given as for (S) or for 2 (second-eluting)
  Stereoselectivity Km: 1.20 fold
OCT2 A270S variant; listed as (S)-Norphenylephrine
  Transporter selectivity: 1.12 fold
NET; [6]
  Vmax ± SEM: 531 pmol × mg Protein^−1 × min^−1
NET; NET
  Clint ± SEM: 230 mL × g Protein^−1 × min^−1
NET; NET, ratio between enantiomers
  Stereoselectivity ClInt: 1.21 fold
  Stereoselectivity Vmax: 1.25 fold

## C[C@@H]1NCCc2cc(O)c(O)cc21 [Salsolinol-2, Salsolinol]
OCT1; HEK293 cells overexpressing human OCT1, racemic substrate, two minutes, net uptake
  Vmax ± SEM: 1426 pmol × mg Protein^−1 × min^−1
OCT1; OCT1
  Clint ± SEM: 10.9 mL × g Protein^−1 × min^−1
OCT1; OCT1, ratio between enantiomers, given as for (R) or for 1 (also 1.00-fold for 1/2)
  Stereoselectivity ClInt: 1.00 fold
OCT1; read-out: Km ± SEM, HEK293 cells overexpressing human OCT1, racemic substrate, two minutes, net uptake minus empty vector control
  Km: 131 µM
SERT [1]
  Stereoselectivity Km: 1.85 fold
  Stereoselectivity Vmax: 1.34 fold
  Clint ± SEM: 0.71 mL × g Protein^−1 × min^−1
SERT [1]; HEK293 cells overexpressing human SERT, racemic substrate, two minutes, net uptake
  Vmax ± SEM: 171 pmol × mg Protein^−1 × min^−1
SERT [1]; read-out: Km ± SEM, HEK293 cells overexpressing human SERT, racemic substrate, two minutes, net uptake minus empty vector control
  Km: 239 µM
SERT [2]
  Stereoselectivity ClInt: 2.48 fold
OCT2 [3]
  Stereoselectivity Km: 1.04 fold
OCT2 [3]; given as for (S) or for 2
  Stereoselectivity ClInt: 1.05 fold
  Stereoselectivity Vmax: 1.01 fold
OCT2 [4]; HEK293 cells overexpressing human OCT2, racemic substrate, two minutes, net uptake
  Vmax ± SEM: 9160 pmol × mg Protein^−1 × min^−1
OCT2 [4]
  Clint ± SEM: 42.7 mL × g Protein^−1 × min^−1
OCT2 [4]; read-out: Km ± SEM, HEK293 cells overexpressing human OCT2, racemic substrate, two minutes, net uptake minus empty vector control
  Km: 213 µM
OCT3
  Stereoselectivity ClInt: 1.21 fold
  Clint ± SEM: 3.15 mL × g Protein^−1 × min^−1
  Stereoselectivity Vmax: 1.01 fold
OCT3; HEK293 cells overexpressing human OCT3, racemic substrate, two minutes, net uptake
  Vmax ± SEM: 697 pmol × mg Protein^−1 × min^−1
OCT3; given as for (S) or for 2 (second-eluting)
  Stereoselectivity Km: 1.20 fold
OCT3; read-out: Km ± SEM, HEK293 cells overexpressing human OCT3, racemic substrate, two minutes, net uptake minus empty vector control
  Km: 222 µM
OCT2 A270S variant; listed as (S)-Salsolinol
  Transporter selectivity: 1.45 fold
NET; [6]
  Vmax ± SEM: 151 pmol × mg Protein^−1 × min^−1
NET; NET
  Clint ± SEM: 1.48 mL × g Protein^−1 × min^−1
NET; NET, ratio between enantiomers
  Stereoselectivity ClInt: 1.19 fold
  Stereoselectivity Vmax: 1.35 fold
NET; NET, ratio between enantiomers, given as for (S) or for 2 (second-eluting)
  Stereoselectivity Km: 1.13 fold
NET; read-out: Km ± SEM, HEK293 cells overexpressing human NET, racemic substrate, two minutes, net uptake minus empty vector control
  Km: 102 µM
